In patent publication US9586951B2 (FUJIFILM Corporation, priority 2013, dated 2017) one finds IC50 data, which are given here for 33 compounds.

pIC50: −log10 of the molar value. Some results are limits rather than exact numbers.

For this assay, the target named is T1, ATM (Homo sapiens, UniProt Q13315).
T1 construct: detecting phosphorylation of Chk2 in a human non-small cell lung cancer cell line NCI-H460 (ATCC company); host or cells: NCI-H460 human non-small cell lung cancer cells
T1 sequence (Q13315 whole entry): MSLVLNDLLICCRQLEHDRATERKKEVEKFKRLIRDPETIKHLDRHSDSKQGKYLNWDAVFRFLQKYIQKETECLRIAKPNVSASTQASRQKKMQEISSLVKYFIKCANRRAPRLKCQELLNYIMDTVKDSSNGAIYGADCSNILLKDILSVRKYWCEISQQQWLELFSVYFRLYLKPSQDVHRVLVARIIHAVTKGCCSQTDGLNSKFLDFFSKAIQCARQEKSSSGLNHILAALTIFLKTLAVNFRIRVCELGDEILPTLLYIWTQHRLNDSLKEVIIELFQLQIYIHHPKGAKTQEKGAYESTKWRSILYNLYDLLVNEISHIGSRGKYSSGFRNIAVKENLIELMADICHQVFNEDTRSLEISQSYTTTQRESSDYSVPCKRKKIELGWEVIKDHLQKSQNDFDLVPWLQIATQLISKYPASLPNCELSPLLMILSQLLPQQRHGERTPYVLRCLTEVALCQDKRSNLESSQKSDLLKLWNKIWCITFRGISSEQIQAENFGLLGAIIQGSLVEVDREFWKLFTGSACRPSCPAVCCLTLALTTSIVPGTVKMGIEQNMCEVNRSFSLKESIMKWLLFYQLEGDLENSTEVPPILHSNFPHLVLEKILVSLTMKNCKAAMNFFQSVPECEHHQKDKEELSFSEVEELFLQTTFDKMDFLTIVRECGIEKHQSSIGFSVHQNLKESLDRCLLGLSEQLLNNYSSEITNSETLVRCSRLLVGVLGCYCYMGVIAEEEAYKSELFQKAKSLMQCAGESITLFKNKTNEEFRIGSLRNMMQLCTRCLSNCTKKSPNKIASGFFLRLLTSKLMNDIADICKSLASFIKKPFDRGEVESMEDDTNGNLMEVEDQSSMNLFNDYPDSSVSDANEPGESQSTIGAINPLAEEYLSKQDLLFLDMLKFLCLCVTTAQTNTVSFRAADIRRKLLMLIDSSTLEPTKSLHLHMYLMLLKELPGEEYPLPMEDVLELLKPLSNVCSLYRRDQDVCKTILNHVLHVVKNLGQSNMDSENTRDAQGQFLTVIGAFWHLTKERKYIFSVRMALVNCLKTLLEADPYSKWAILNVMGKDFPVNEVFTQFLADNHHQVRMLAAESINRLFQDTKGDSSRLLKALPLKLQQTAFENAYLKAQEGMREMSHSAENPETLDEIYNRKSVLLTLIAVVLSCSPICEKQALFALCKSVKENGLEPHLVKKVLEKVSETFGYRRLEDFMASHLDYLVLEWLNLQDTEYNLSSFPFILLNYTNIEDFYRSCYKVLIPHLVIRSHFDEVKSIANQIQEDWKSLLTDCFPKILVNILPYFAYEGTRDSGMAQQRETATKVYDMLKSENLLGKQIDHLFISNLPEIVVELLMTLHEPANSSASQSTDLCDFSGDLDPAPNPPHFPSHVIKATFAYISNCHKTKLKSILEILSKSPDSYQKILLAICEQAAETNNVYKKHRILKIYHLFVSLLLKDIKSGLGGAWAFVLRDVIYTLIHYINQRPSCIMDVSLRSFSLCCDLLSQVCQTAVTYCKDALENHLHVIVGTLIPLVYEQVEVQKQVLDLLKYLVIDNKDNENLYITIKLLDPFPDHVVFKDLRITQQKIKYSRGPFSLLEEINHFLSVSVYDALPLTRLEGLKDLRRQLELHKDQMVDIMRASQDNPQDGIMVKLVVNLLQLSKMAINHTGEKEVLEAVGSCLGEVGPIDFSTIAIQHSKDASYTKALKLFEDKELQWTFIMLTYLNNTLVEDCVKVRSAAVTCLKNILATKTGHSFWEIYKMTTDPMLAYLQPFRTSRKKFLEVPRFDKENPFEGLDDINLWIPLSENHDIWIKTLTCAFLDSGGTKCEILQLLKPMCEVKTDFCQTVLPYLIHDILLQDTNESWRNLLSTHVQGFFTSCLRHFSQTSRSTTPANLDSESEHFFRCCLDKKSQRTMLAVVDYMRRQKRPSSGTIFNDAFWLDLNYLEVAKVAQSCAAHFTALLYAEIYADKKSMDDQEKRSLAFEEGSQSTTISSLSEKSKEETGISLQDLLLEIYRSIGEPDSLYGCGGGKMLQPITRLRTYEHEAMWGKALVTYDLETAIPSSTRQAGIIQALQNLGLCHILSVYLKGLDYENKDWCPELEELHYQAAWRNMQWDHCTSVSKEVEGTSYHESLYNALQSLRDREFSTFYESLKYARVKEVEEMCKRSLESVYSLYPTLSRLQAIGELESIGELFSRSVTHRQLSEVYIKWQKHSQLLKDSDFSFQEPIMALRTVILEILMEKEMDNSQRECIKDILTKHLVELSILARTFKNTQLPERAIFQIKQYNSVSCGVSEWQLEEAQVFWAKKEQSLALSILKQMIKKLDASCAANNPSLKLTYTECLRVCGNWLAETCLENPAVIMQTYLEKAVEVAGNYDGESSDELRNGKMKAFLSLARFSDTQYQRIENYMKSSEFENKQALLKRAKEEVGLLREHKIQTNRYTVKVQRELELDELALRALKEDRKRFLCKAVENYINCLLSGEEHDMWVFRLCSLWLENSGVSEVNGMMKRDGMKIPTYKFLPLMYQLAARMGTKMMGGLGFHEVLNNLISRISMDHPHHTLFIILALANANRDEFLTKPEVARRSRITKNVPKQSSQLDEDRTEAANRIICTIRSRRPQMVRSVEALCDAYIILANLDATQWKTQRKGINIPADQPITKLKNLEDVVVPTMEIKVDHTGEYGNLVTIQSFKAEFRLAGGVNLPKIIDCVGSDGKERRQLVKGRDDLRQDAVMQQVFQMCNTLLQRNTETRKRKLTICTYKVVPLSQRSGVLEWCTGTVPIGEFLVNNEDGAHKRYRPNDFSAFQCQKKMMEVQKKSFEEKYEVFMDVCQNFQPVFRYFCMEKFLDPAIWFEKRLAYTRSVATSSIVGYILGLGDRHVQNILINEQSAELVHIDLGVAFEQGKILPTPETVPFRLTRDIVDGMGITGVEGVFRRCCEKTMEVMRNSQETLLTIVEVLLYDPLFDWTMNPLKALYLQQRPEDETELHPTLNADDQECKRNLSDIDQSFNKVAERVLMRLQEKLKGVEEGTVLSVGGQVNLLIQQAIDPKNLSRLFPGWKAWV
Briefly: ATM inhibition test (phosphorylation of Chk2 generated by ionizing radiation, AlphaScreen SureFire). It is filed as cell-based. To be noted: phosphorylated Chk2 in NCI-H460 cells, ionizing radiation 8Gy, 1 hour after test compound treatment; read-out: ATM inhibitory activity. In a few lines: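 In NCI-H460 cells, radiation-triggered Chk2 phosphorylation (8Gy, 1 h) is detected by AlphaScreen SureFire following 1 h compound exposure.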
For the compound `COC[C@H](CN1CCOCC1)Nc1ccc2c(c1)Sc1cccc(-c3cc(N4CCOCC4)cc(=O)[nH]3)c1O2` [Example 10-6, (S)-6-(8-((1-methoxy-3-morpholinopropan-2-yl)amino)phenoxathiin-4-yl)-4-morpholinopyridin-2(1H)-one], the pIC50 was 6.30 to 7.00. Regarding `O=c1cc(N2CCOCC2)cc(-c2cccc3c2Oc2ccc(NCc4ncccn4)cc2C3)[nH]1` [Example 2-3-4, 4-Morpholino-6-(7-((pyrimidin-2-ylmethyl)amino)-9H-xanthen-4-yl) pyridin-2(1H)-one], the pIC50 was 5.70 to 6.30. For the compound `Cc1cc(C(C)Nc2ccc3c(c2)Cc2cccc(-c4cc(N5CCOCC5)cc(=O)[nH]4)c2O3)ccn1` (stereo not drawn) [Example 2-14-28, 6-(7-((1-(2-Methylpyridin-4-yl)ethyl)amino)-9H-xanthen-4-yl)-4-morpholino pyridin-2(1H)-one], the pIC50 is 6.30 to 7.00. Turning to `CN1CCC(Nc2ccc3c(c2)Sc2cccc(-c4cc(N5CCOCC5)cc(=O)[nH]4)c2O3)CC1` [Example 4-8-2, 6-(8-((1-Methylpiperidin-4-yl)amino)phenoxathiin-4-yl)-4-morpholino pyridin-2(1H)-one], the pIC50 is 6.30 to 7.00.

For `COc1cncc(C(C)Nc2ccc3c(c2)Sc2cccc(-c4cc(N5CCOCC5)cc(=O)[nH]4)c2S3)c1` (single isomer, unassigned) [Example 1-12-145-2, 6-(7-((1-(5-methoxypyridin-3-yl)ethyl)amino)thianthren-1-yl)-4-morpholinopyridin-2(1H)-one], the pIC50 is over 7.00.

`O=c1cc(N2CCOCC2)cc(-c2cccc3c2Oc2ccc(NCc4nccs4)cc2C3)[nH]1` [Example 2-14-31, 4-Morpholino-6-(7-((thiazol-2-ylmethyl)amino)-9H-xanthen-4-yl) pyridin-2(1H)-one]: the pIC50 was 6.30 to 7.00.

On to `O=c1cc(N2CCOCC2)cc(-c2cccc3c2Sc2ccc(NCc4cncs4)cc2S3)[nH]1` [Example 1-12-54, 4-Morpholino-6-(7-((thiazol-5-ylmethyl)amino)thianthren-1-yl)pyridin-2 (1H)-one], for which the pIC50 is 6.30 to 7.00. As for `O=c1cc(N2CCOCC2)cc(-c2cccc3c2Sc2ccc(NC4CN(Cc5cccnc5)C4)cc2S3)[nH]1` [Example 1-24-21, 4-Morpholino-6-(7-((1-(pyridin-3-ylmethyl)azetidin-3-yl)amino)thianthren-1-yl)pyridin-2(1H)-one], the pIC50 was 6.30 to 7.00. As to `COc1ccncc1CN1CCC(Nc2ccc3c(c2)Cc2cccc(-c4cc(N5CCOCC5)cc(=O)[nH]4)c2O3)CC1` [Example 2-28-11, 6-(7-((1-((4-Methoxypyridin-3-yl)methyl)piperidin-4-yl)amino)-9H-xanthen-4-yl)-4-morpholino pyridin-2(1H)-one], the pIC50 is 6.30 to 7.00. `O=c1cc(N2CCOCC2)cc(-c2cccc3c2Oc2ccc(NCc4cncc(Cl)c4)cc2S3)[nH]1` [Example 4-8-6, 6-(8-(((5-Chloropyridin-3-yl)methyl)amino)phenoxathiin-4-yl)-4-morpholino pyridin-2(1H)-one]: the pIC50 was 6.30 to 7.00. In the case of `Cc1cncc(CNc2ccc3c(c2)Cc2cccc(-c4cc(N5CCOCC5)cc(=O)[nH]4)c2O3)c1` [Example 2-2-9, 6-(7-(((5-Methylpyridin-3-yl)methyl)amino)-9H-xanthen-4-yl)-4-morpholino pyridin-2(1H)-one], the pIC50 is 6.30 to 7.00. Consider `O=c1cc(N2CCOCC2)cc(-c2cccc3c2Sc2ccc(NCc4ccno4)cc2C3)[nH]1` [Example 3-6, 6-(7-((isoxazol-5-ylmethyl)amino)-9H-thioxanthen-4-yl)-4-morpholinopyridin-2(1H)-one], for which the pIC50 is 5.70 to 6.30. Turning to `O=c1cc(N2CCOCC2)cc(-c2cccc3c2Oc2ccc(NC4CCCN(CCc5ccccc5)C4)cc2S3)[nH]1` (stereo not drawn) [Example 4-6-3], the pIC50 is 6.30 to 7.00. For the compound `O=c1cc(N2CCOCC2)cc(-c2cccc3c2Oc2ccc(NCc4cccnc4)cc2C3)[nH]1` [Example 2-3-1, 4-Morpholino-6-(7-((pyridin-3-ylmethyl)amino)-9H-xanthen-4-yl)pyridin-2(1H)-one], the pIC50 was 6.30 to 7.00. For the compound `O=c1cc(N2CCOCC2)cc(-c2cccc3c2Oc2ccc(NCc4ccccc4)cc2C3)[nH]1` [Example 2-14-3, 6-(7-(Benzylamino)-9H-xanthen-4-yl)-4-morpholino pyridin-2(1H)-one], the pIC50 was 6.30 to 7.00. With `Cc1ccc(CN2CCC(Nc3ccc4c(c3)Cc3cccc(-c5cc(N6CCOCC6)cc(=O)[nH]5)c3O4)CC2)nc1` [Example 2-28-22, 6-(7-((1-((5-Methylpyridin-2-yl)methyl)piperidin-4-yl)amino)-9H-xanthen-4-yl)-4-morpholino pyridin-2(1H)-one], the pIC50 was 6.30 to 7.00. As for `O=c1cc(N2CCOCC2)cc(-c2cc(F)cc3c2Oc2ccc(NCc4cc(C5CC5)ccn4)cc2C3)[nH]1` [Example 2-48-4, 6-(7-(((4-Cyclopropylpyridin-2-yl)methyl)amino)-2-fluoro-9H-xanthen-4-yl)-4-morpholinopyridin-2(1H)-one], the figure is 6.30 to 7.00; as for `CCCC(Nc1ccc2c(c1)Sc1cccc(-c3cc(N4CCOCC4)cc(=O)[nH]3)c1S2)c1ccc(C)cn1` (stereo not drawn) [Example 1-12-119, 6-(7-((1-(5-Methylpyridin-2-yl)butyl)amino)thianthren-1-yl)-4-morpholino pyridin-2 (1H)-one], 6.30 to 7.00; as for `COc1ncc(CN2CCC(Nc3ccc4c(c3)Cc3cccc(-c5cc(N6CCOCC6)cc(=O)[nH]5)c3O4)CC2)cn1` [Example 2-28-14, 6-(7-((1-((2-Methoxypyrimidin-5-yl)methyl)piperidin-4-yl)amino)-9H-xanthen-4-yl)-4-morpholino pyridin-2(1H)-one], 6.30 to 7.00. For `CCN(CC)CCNc1ccc2c(c1)Cc1cccc(-c3cc(N4CCOCC4)cc(=O)[nH]3)c1S2` [Example 3-4-4, 6-(7-((2-(Diethylamino)ethyl)amino)-9H-thioxanthen-4-yl)-4-morpholino pyridin-2(1H)-one], the pIC50 is 5.70 to 6.30. Turning to `CC(C)(CN1CCOCC1)Nc1ccc2c(c1)Sc1cccc(-c3cc(N4CCOCC4)cc(=O)[nH]3)c1S2` [Example 1-46-2, 6-(7-((2-methyl-1-morpholinopropan-2-yl)amino)thianthren-1-yl)-4-morpholinopyridin-2(1H)-one], the pIC50 was 6.30 to 7.00. In the case of `COCc1ccc(CCN2CCC(Nc3ccc4c(c3)Cc3cccc(-c5cc(N6CCOCC6)cc(=O)[nH]5)c3O4)CC2)cc1` [Example 2-30-20, 6-(7-((1-(4-(Methoxymethyl)phenethyl)piperidin-4-yl)amino)-9H-xanthen-4-yl)-4-morpholino pyridin-2(1H)-one], the pIC50 is 5.70 to 6.30. For the compound `COc1ccc(CCN2CCC(Nc3ccc4c(c3)Cc3cccc(-c5cc(N6CCOCC6)cc(=O)[nH]5)c3O4)CC2)cn1` [Example 2-28-38, 6-(7-((1-(2-(6-Methoxypyridin-3-yl)ethyl)piperidin-4-yl)amino)-9H-xanthen-4-yl)-4-morpholino pyridin-2(1H)-one], the pIC50 was 6.30 to 7.00. As for `COc1ccncc1CN1CCC(Nc2ccc3c(c2)Sc2cccc(-c4cc(N5CCOCC5)cc(=O)[nH]4)c2S3)C1` (stereo not drawn) [Example 1-24-10, 6-(7-((1-((4-Methoxypyridin-3-yl)methyl)pyrrolidin-3-yl)amino)thianthren-1-yl)-4-morpholino pyridin-2(1H)-one], the pIC50 was 6.30 to 7.00.

Regarding `CC1CCCN(CC(CO)Nc2ccc3c(c2)Sc2cccc(-c4cc(N5CCOCC5)cc(=O)[nH]4)c2S3)C1` (stereo not drawn) [Example 1-37-1, 6-(7-((1-hydroxy-3-(3-methylpiperidin-1-yl)propan-2-yl)amino)thianthren-1-yl)-4-morpholinopyridin-2(1H)-one], the pIC50 was 6.30 to 7.00. The result for `O=C(CNc1ccc2c(c1)Sc1cccc(-c3cc(N4CCOCC4)cc(=O)[nH]3)c1S2)N1CCCCC1` [Example 1-18-2] reads 6.30 to 7.00; that for `CC(C)(C)OC(=O)N1CCC(Nc2ccc3c(c2)Cc2cccc(-c4cc(N5CCOCC5)cc(=O)[nH]4)c2O3)CC1` [Example 2-3-12, tert-Butyl 4-((5-(4-morpholino-6-oxo-1,6-dihydropyridin-2-yl)-9H-xanthen-2-yl)amino) piperidine-1-carboxylate], 6.30 to 7.00. Turning to `Cc1nccc(C(C)Nc2ccc3c(c2)Sc2cccc(-c4cc(N5CCOCC5)cc(=O)[nH]4)c2S3)n1` (single isomer, unassigned) [Example 1-12-141-2, 6-(7-((1-(2-methylpyrimidin-4-yl)ethyl)amino)thianthren-1-yl)-4-morpholinopyridin-2(1H)-one], the pIC50 was 6.30 to 7.00. With `COc1ccncc1CNc1ccc2c(c1)Sc1cccc(-c3cc(N4CCOCC4)cc(=O)[nH]3)c1O2` [Example 4-8-10, 6-(8-(((4-Methoxypyridin-3-yl)methyl)amino)phenoxathiin-4-yl)-4-morpholino pyridin-2(1H)-one], the pIC50 is 6.30 to 7.00.

Take `O=c1cc(N2CCOCC2)cc(-c2cccc3c2Sc2ccc(NCc4cccnc4)cc2C3)[nH]1` [Example 3-8-1, 4-Morpholino-6-(7-((pyridin-3-ylmethyl)amino)-9H-thioxanthen-4-yl)pyridin-2(1H)-one]: the pIC50 was 6.30 to 7.00. For `Cc1ccc(C(Nc2ccc3c(c2)Sc2cccc(-c4cc(N5CCOCC5)cc(=O)[nH]4)c2S3)C2CCCCC2)nc1` (stereo not drawn) [Example 1-12-126, 6-(7-((Cyclohexyl(5-methylpyridin-2-yl)methyl)amino)thianthren-1-yl)-4-morpholino pyridin-2(1H)-one], the pIC50 is 5.70 to 6.30. Take `CN(C)C(=O)Nc1ncc(CNc2ccc3c(c2)Sc2cccc(-c4cc(N5CCOCC5)cc(=O)[nH]4)c2S3)cn1` [Example 1-12-47]: the pIC50 was 6.30 to 7.00. On to `Nc1cccc2c1Sc1cccc(-c3cc(N4CCOCC4)cc(=O)[nH]3)c1O2` [Example 4-3, 6-(9-Aminophenoxathiin-4-yl)-4-morpholinopyridin-2(1H)-one], for which the pIC50 is 6.30 to 7.00.
